The target in assay [1] is Serine/threonine-protein kinase 4 (Homo sapiens) (UniProt Q13043). As to the kind of experiment: Inhibition of MST1 Lys1 labeling site harbouring AIHKETGQIVAIKQVPVESDLQEIIK in human A-375 cells at 0.5 uM by KiNativ Profiling analysis relative to control.
Assay [2] has as its target Mitogen-activated protein kinase 14 (Homo sapiens, UniProt Q16539). The experiment in a line: Inhibition of p38 alpha (unknown origin) at 1 uM by Ambit Kinomescan binding assay relative to control; values are per cent of control.
Assay [3] addresses Ephrin type-B receptor 1 (Homo sapiens) (UniProt P54762). As to the kind of experiment: Inhibition of EPHB1 (unknown origin) at 1 uM by Ambit Kinomescan binding assay relative to control; values are per cent of control.
Assay [4] has as its target Mitogen-activated protein kinase 7 (Homo sapiens) (UniProt Q13164). The experiment in a line: Inhibition of ERK5 (unknown origin) at 1 uM by Ambit Kinomescan binding assay relative to control.
Assay [5] addresses Epidermal growth factor receptor (Homo sapiens) (UniProt P00533). The experiment in a line: Inhibition of EGFR Lys1 labeling site in human A-375 cells at 0.05 uM by KiNativ Profiling analysis relative to control. The format is cell-based.
Assay [6] has as its target T1, Aurora kinase C (Homo sapiens) (UniProt Q9UQB9).
T1 sequence (whole entry): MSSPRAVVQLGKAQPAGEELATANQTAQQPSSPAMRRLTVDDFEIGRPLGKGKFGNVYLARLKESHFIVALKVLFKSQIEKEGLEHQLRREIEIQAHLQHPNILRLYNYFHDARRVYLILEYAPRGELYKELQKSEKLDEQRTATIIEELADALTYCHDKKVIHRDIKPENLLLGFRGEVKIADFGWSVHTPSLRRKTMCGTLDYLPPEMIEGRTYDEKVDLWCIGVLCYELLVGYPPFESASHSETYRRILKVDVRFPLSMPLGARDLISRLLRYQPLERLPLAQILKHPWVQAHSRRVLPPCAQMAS
As to the kind of experiment: Inhibition of AURKC (unknown origin) at 10 uM by Ambit Kinomescan binding assay.

The target of assay [7] is Tyrosine-protein kinase Fer (Homo sapiens, UniProt P16591). The experiment in a line: Inhibition of FER (unknown origin) ACT labeling site by KiNativ Profiling analysis.
Assay [8] addresses Serine/threonine-protein kinase Nek4 (Homo sapiens) (UniProt P51957). As to the kind of experiment: Inhibition of NEK4 Lys2 labeling site in human Huh-7 cell lysate at 1 uM by KiNativ Profiling analysis relative to control. The format is subcellular.
For assay [9], the target named is Serine/threonine-protein kinase mTOR (Homo sapiens) (UniProt P42345). As to the kind of experiment: Inhibition of FRAP ATP labeling site in human Huh-7 cell lysate at 1 uM by KiNativ Profiling analysis relative to control. The format is subcellular.
Assay [10] addresses T2, Serine/threonine-protein kinase greatwall (Homo sapiens) (UniProt Q96GX5).
T2 sequence (whole entry): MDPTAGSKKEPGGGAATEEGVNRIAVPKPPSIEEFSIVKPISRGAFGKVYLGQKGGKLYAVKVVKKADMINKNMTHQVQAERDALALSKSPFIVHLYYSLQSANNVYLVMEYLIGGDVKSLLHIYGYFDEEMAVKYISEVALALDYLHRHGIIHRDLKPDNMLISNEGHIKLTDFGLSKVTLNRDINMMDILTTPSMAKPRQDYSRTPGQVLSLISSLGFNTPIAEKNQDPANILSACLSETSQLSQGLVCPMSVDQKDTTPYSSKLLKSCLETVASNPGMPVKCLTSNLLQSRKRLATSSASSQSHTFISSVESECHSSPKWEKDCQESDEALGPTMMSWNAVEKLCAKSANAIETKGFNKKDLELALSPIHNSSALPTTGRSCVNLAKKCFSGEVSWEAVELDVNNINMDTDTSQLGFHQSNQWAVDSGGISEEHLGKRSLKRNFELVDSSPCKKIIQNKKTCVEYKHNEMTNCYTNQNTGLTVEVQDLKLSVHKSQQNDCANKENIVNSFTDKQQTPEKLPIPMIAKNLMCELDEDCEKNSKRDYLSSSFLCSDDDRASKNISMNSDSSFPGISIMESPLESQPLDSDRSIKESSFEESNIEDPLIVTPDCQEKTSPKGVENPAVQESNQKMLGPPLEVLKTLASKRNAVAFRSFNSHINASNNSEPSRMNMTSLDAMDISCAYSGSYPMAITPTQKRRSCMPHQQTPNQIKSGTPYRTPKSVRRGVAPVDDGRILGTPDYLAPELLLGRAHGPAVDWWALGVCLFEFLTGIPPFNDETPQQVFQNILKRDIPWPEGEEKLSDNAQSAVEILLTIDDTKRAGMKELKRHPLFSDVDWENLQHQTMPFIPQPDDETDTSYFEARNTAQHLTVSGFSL
The experiment in a line: Inhibition of MASTL Lys2 labeling site in human Huh-7 cells at 1 uM by KiNativ Profiling analysis relative to control. The format is cell-based.

Assay [11] deals with T3, Serine/threonine-protein kinase tousled-like 1 (Homo sapiens) (UniProt Q9UKI8).
T3 sequence (whole entry): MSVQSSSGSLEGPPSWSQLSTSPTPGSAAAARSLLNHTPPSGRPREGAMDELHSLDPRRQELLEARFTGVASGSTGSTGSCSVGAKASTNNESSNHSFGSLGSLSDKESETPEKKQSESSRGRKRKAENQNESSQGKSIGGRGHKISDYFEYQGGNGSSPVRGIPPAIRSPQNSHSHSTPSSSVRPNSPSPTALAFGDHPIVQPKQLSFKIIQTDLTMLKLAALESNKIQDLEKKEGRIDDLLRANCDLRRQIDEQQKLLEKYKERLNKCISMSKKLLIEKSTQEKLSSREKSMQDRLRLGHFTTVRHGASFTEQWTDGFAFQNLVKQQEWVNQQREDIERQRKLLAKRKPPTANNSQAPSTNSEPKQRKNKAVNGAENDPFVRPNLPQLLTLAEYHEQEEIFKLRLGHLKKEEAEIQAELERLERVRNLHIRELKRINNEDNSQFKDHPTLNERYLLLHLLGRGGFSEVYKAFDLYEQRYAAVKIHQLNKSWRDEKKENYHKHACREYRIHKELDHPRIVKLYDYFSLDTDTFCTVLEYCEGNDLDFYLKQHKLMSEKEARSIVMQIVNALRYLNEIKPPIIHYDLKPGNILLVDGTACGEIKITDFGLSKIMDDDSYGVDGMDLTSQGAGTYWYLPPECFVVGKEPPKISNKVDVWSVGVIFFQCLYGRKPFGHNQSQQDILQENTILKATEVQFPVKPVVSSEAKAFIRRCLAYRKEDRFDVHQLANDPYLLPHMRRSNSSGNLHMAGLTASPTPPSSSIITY
As to the kind of experiment: Inhibition of TLK1 Lys2 labeling site in human Huh-7 cell lysate at 1 uM by KiNativ Profiling analysis relative to control. The format is subcellular.

pIC50: −log10 of the molar value. The source made the active and inactive calls. The calls are words filed in the database; no cut-off is given here.

inhibition, residual activity and IC50 data for 3 compounds are collected here from ChEMBL document CHEMBL5696442, “Discovery of type II inhibitors of TGFβ-activated kinase 1 (TAK1) and mitogen-activated protein kinase kinase kinase kinase 2 (MAP4K2)” (J Med Chem, 2015).

Epidermal growth factor receptor (Homo sapiens), sequence (P00533 whole entry): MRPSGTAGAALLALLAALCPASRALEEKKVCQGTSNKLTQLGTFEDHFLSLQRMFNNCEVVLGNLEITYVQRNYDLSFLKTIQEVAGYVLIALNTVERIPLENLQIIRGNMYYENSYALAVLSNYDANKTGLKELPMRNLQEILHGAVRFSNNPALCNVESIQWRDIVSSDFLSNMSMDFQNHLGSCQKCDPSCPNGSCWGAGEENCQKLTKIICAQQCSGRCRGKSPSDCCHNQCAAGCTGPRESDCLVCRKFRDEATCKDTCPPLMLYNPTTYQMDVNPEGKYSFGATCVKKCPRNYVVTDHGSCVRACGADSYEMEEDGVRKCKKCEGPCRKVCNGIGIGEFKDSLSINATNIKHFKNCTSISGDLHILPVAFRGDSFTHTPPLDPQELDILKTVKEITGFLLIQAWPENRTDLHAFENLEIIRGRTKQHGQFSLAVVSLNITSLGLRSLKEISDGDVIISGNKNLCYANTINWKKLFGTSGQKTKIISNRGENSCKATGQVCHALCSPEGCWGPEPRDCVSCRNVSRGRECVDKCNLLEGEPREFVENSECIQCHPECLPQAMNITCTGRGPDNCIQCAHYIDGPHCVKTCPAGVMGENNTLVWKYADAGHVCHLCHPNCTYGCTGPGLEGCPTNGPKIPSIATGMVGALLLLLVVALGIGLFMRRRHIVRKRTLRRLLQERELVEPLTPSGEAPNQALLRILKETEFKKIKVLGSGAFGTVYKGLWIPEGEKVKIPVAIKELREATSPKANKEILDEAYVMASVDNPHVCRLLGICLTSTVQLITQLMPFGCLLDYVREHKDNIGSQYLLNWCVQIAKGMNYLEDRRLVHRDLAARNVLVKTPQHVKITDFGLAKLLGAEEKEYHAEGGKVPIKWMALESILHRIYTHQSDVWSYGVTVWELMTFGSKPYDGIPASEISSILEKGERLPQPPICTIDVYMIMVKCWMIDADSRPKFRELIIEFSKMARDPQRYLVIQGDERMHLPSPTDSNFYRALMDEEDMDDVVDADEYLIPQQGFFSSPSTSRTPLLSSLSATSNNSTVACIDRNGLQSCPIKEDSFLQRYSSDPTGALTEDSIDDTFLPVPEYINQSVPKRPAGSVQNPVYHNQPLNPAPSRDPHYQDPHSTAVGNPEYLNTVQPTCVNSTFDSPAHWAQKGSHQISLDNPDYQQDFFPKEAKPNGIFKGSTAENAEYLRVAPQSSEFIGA
Mitogen-activated protein kinase 7 (Homo sapiens), sequence (Q13164 2-816 limits assumed): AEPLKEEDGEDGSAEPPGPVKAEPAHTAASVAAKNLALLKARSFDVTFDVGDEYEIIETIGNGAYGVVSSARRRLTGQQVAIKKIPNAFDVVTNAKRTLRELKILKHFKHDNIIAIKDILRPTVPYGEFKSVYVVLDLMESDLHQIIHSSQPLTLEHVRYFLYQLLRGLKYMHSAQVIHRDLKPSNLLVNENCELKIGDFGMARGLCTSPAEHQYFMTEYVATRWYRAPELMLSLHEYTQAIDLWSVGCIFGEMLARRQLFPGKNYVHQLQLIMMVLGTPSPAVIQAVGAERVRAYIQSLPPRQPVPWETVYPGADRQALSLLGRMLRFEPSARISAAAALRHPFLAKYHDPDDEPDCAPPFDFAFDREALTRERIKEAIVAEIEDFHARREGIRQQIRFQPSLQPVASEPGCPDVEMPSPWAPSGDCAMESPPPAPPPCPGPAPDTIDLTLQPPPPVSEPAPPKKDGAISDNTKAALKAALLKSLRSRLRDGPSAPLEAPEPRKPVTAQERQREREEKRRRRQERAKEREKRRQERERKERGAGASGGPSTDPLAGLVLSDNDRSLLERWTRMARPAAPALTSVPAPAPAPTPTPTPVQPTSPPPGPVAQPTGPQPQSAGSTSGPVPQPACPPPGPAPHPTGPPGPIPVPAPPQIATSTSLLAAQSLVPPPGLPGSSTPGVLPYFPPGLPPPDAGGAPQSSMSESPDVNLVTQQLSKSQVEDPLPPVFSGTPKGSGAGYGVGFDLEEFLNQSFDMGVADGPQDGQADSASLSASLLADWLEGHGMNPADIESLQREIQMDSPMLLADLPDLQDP
Mitogen-activated protein kinase 14, sequence (Q16539 whole entry): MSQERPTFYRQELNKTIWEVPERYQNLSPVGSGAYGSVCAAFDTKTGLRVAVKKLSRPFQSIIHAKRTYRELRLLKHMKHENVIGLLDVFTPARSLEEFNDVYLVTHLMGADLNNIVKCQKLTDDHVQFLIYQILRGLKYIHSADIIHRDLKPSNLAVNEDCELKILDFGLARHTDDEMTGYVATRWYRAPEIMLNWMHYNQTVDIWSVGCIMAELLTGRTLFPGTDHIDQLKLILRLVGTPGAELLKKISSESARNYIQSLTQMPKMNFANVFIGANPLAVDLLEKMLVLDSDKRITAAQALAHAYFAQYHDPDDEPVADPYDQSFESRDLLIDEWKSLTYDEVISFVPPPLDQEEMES
Serine/threonine-protein kinase 4 (Homo sapiens), sequence (Q13043 whole entry, looked up): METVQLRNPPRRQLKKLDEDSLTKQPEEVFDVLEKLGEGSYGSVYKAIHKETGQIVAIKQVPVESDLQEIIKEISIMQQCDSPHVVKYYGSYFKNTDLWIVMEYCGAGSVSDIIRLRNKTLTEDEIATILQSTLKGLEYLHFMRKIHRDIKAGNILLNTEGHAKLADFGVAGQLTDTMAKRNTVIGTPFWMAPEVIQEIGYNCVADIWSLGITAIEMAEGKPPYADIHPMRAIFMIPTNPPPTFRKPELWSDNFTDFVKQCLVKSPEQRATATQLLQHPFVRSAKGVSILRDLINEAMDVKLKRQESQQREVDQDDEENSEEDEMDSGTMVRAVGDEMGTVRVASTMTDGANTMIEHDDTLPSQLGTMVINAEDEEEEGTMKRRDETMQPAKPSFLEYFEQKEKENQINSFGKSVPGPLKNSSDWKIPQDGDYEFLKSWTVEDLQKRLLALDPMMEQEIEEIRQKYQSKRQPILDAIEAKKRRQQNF
Ephrin type-B receptor 1 (Homo sapiens), sequence (P54762 whole entry): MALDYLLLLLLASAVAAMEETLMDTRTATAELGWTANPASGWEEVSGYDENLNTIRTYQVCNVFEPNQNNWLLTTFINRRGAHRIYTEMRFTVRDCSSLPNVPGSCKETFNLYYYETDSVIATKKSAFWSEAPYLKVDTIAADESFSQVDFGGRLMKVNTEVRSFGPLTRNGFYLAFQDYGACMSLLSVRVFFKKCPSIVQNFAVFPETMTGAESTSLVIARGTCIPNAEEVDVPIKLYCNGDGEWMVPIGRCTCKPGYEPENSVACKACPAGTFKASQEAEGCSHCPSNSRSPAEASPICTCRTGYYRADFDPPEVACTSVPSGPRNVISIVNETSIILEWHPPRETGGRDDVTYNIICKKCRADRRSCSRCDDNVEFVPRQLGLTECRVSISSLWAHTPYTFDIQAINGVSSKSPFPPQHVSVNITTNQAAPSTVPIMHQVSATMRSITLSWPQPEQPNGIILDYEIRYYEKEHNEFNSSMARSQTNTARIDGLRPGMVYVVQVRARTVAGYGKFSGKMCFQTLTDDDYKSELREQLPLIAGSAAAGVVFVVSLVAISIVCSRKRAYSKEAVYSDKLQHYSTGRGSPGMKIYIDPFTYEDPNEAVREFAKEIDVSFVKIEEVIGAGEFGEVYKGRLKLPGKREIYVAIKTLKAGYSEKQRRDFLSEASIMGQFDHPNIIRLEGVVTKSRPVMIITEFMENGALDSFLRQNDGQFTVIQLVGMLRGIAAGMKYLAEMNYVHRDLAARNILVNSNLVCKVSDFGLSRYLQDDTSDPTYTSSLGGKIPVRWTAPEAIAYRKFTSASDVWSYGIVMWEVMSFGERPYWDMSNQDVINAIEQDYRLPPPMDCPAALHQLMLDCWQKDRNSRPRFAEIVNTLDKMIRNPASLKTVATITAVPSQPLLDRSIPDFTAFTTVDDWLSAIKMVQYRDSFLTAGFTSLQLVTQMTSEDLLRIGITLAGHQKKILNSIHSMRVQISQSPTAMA
Serine/threonine-protein kinase Nek4 (Homo sapiens), sequence (P51957 whole entry, looked up): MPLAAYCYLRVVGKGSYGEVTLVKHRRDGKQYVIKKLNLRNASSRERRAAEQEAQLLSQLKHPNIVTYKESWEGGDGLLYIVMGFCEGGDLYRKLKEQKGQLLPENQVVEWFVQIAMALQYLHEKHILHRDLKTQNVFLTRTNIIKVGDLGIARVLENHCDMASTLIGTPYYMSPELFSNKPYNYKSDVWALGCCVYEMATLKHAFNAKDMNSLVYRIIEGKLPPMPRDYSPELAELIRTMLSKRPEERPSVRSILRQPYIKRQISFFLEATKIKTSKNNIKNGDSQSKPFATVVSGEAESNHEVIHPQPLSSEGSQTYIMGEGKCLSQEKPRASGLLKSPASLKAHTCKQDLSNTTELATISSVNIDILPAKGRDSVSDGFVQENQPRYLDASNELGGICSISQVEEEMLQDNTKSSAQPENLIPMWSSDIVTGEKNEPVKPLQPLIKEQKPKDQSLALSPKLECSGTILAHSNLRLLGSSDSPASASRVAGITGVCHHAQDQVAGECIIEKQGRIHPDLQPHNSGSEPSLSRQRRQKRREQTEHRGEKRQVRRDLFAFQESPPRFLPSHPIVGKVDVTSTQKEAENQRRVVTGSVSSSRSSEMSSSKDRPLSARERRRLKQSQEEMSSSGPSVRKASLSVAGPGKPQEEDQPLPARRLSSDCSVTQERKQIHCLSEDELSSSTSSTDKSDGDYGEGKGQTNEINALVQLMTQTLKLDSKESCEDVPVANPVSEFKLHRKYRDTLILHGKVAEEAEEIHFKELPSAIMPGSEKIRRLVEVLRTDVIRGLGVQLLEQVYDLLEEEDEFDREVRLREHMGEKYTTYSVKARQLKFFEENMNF

Consider `CCN1CCN(Cc2ccc(NC(=O)c3ccc(C)c(/C=C/c4cnc5[nH]ccc5c4OC)c3)cc2C(F)(F)F)CC1`, for which the inhibition is -4.7% in assay [1] and 83% in [4]. The residual activity in assay [2] is 1.7%; in assay [3], 11%.

With `CCN1CCN(Cc2ccc(NC(=O)c3ccc(C)c(Oc4ccnc5[nH]ccc45)c3)cc2C(F)(F)F)CC1`, in [5], the inhibition amounted to 11.7%. Besides, the inhibition result in assay [6] was “inactive”. The compound further showed a pIC50 in assay [7] of 7.08.

As for `CNc1cc(Oc2cc(C(=O)Nc3cc(N4CCN(C)CC4)cc(C(F)(F)F)c3)ccc2C)ncn1`, the inhibition is -2.2% in [8], -1.8% in assay [9], -7.3% in assay [10] and 1% in assay [11].

By inhibition is commonly meant the change of the read-out against control, counted positive when it falls. Broadly, the pIC50 is the negative decadic logarithm of the IC50, by convention in mol/L. The low end stands for a large IC50, the high end for a small IC50.
